≈ marks a conversion by molar mass, not a printed value.
Key:
[1] = tested on: Mycobacterium tuberculosis; experiment: microbe, parasite or virus in culture; details: H37Rv, 168 h
Description: Antimycobacterial activity against Mycobacterium tuberculosis H37Rv assessed as inhibition of bacterial growth measured after 7 days by microplate alamar blue assay

in vitro = details: monkey, Vero cells
Description: Selectivity index, ratio of IC50 for African green monkey vero cells to MIC for Mycobacterium tuberculosis H37Rv

[2] = Metabolic stability in mouse liver microsomes at 0.5 uM measured after 15 to 120 mins in absence of NADPH by LC-MS/MS analysis; assay type: ADME, Microsome; details: time 15-120 min
[3] = Metabolic stability in mouse liver microsomes at 0.5 uM measured after 15 to 120 mins in presence of NADPH by LC-MS/MS analysis; assay type: ADME, Microsome; details: time 15-120 min
[4] = biological target: Voltage-gated inwardly rectifying potassium channel KCNH2 (Homo sapiens, UniProt Q12809)
Voltage-gated inwardly rectifying potassium channel KCNH2, sequence (Q12809 whole entry): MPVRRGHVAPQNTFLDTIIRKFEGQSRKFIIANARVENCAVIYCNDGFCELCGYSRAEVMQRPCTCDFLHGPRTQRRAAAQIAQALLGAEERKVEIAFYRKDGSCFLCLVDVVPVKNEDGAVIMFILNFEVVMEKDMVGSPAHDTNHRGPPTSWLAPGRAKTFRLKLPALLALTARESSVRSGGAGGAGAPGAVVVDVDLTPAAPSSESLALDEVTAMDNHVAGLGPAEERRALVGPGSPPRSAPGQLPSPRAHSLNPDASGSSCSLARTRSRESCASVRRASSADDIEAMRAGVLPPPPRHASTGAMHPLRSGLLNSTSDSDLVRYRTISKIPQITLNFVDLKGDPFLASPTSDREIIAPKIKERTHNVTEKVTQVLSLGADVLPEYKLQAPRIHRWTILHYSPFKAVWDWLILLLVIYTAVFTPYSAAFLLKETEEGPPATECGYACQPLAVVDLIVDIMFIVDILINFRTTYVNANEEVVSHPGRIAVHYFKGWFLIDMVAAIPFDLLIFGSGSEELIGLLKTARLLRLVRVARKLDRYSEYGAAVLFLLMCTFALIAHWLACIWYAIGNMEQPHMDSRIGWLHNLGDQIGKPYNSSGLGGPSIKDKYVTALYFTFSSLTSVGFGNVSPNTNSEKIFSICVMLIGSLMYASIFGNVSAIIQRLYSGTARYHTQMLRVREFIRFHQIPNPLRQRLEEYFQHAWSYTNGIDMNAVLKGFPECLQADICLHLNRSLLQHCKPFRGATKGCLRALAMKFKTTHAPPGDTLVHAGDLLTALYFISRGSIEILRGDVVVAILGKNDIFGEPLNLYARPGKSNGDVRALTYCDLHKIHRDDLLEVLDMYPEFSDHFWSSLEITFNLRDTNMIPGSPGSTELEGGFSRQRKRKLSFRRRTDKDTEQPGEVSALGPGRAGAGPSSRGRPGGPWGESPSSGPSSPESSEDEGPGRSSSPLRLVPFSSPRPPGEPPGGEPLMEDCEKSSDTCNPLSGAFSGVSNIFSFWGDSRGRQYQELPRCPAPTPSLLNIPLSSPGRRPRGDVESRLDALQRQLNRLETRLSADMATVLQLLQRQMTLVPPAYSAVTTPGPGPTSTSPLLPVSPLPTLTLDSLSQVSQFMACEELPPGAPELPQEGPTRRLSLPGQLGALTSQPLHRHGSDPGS
Description: Inhibition of hERG potassium channel in HEK293 cells at 0.3 to 30 uM by whole-cell patch clamp assay

[5] = tested on: Mycobacterium tuberculosis; assay type: functional, H37Rv; details: dose 100 mg/kg; route po; time 3-30 day
Vero = experiment: Cytotoxicity against African green monkey vero cells assessed as reduction in cell viability measured after 48 hrs by MTT assay; assay type: functional, cell-based; details: Chlorocebus sabaeus
[6] = tested on: Mycobacterium tuberculosis; experiment: Antimycobacterial activity against Mycobacterium tuberculosis mc2 6206 assessed as decrease in trehalose dimycolate measured after 16 hrs using [14C]acetate by TLC analysis; assay type: functional, organism-based; details: DDE = dose-dependent effect
[7] = tested on: Mycolicibacterium smegmatis; experiment: Antimycobacterial activity against Mycobacterium smegmatis harboring MsmgdeltammpL3/pMVGHI-mmpL3tb G253E mutant assessed as reduction in bacterial growth measured after 16 hrs […]; assay type: functional
[8] = tested on: Mycolicibacterium smegmatis; experiment: Antimycobacterial activity against Mycobacterium smegmatis harboring MsmgdeltammpL3/pMVGHI-mmpL3tb mutant assessed as reduction in bacterial growth measured after 16 hrs […]; assay type: functional
[9] = tested on: Mycobacterium tuberculosis; experiment: microbe, parasite or virus in culture; details: H37Rv mc2 6206, 16 h
Description: Antimycobacterial activity against Mycobacterium tuberculosis H37Rv mc2 6206 assessed as reduction in bacterial growth measured after 16 hrs by TLC analysis

[10] = tested on: Mycobacterium tuberculosis; experiment: Antimycobacterial activity against Mycobacterium tuberculosis mc2 6206 assessed as decrease in mycolic acid transfer to cell wall arabinogalactan measured after 16 hrs using [14C]acetate by TLC analysis; assay type: functional, organism-based; details: dose 0.0625-1 µg/ml, DDE = dose-dependent effect

Row | Structure (SMILES) | MIC90 [1] | selectivity ratio (in vitro) | other results
1 | O=C(NC12CC3CC(CC(C3)C1)C2)c1cc(-c2ccc(F)cc2)c[nH]1 | < 0.016 µg/mL | – | –
2 | NNC(=O)c1ccncc1 [ISONIAZID] | 0.04 µg/mL (≈ 0.292 µM) | – | –
3 | O=C(NC1C2CC3CC(C2)CC1C3)c1cc(-c2ccc(F)cc2F)c[nH]1 (stereo unspecified) | < 0.016 µg/mL | 900 | Stability [2]: Stable; Stability [3]: 61.4%
4 | O=C(NC12CC3CC(CC(C3)C1)C2)c1cc(-c2ccc(F)nc2F)c[nH]1 | < 0.016 µg/mL | – | Stability [2]: Stable; Stability [3]: 47.6%; IC50 [4]: > 30 µM; Activity [5]: 1 log10CFU
5 | COc1cnccc1-c1c[nH]c(C(=O)NC2C3CC4CC(C3)CC2C4)c1 (stereo unspecified) | 0.24 µg/mL (≈ 0.683 µM) | 245 | IC50 (Vero): 58.8 µg/mL (≈ 167 µM)
6 | O=C(NC1CCCCCC1)c1cc(-c2ccc(Cl)cc2Cl)c[nH]1 | 1.9 µg/mL (≈ 5.41 µM) | – | –
7 | O=C(NC1C2CC3CC(C2)CC1C3)c1cc(-c2ccc(Cl)nc2Cl)c[nH]1 (stereo unspecified) | 0.24 µg/mL (≈ 0.615 µM) | – | IC50 (Vero): > 64 µg/mL
8 | O=C(NC1C2CC3CC(C2)CC1C3)c1cc(-c2cncnc2)c[nH]1 (stereo unspecified) | 0.96 µg/mL (≈ 2.98 µM) | – | –
9 | O=C(NC1CCCCCCC1)c1cc(-c2ccc(Cl)cc2)c[nH]1 | 0.24 µg/mL (≈ 0.725 µM) | – | –
10 | O=C(c1cc(-c2ccc(Cl)cc2Cl)c[nH]1)N1CCCCC1 | 7.7 µg/mL (≈ 23.8 µM) | – | –
11 | COc1ncc(-c2c[nH]c(C(=O)NC3C4CC5CC(C4)CC3C5)c2)cn1 (stereo unspecified) | 3.8 µg/mL (≈ 10.8 µM) | – | –
12 | O=C(NC1CCCCCCC1)c1cc(-c2ccc(F)cc2F)c[nH]1 | < 0.016 µg/mL | – | inhibition [6]: Dde; MIC=>90 [7]: 2 µg/mL (≈ 6.02 µM); MIC90 [8]: 0.25 µg/mL (≈ 0.752 µM); MIC90 [9]: 0.125 µg/mL (≈ 0.376 µM); inhibition [10]: Dde
13 | O=C(NC1CCCCCCC1)c1cc(-c2ccncc2F)c[nH]1 | 0.06 µg/mL (≈ 0.19 µM) | – | –
14 | O=C(NC12CC3CC(CC(C3)C1)C2)c1cc(-c2ccc(Cl)cc2)c[nH]1 | 0.155 µg/mL (≈ 0.437 µM) | – | –
15 | O=C(NC12CC3CC(CC(C3)C1)C2)c1cc(-c2ccc(F)cc2F)c[nH]1 | < 0.016 µg/mL | – | inhibition [6]: Dde; Stability [2]: Stable; Stability [3]: 57.4%; MIC=>90 [7]: 2 µg/mL (≈ 5.61 µM); MIC90 [8]: 0.25 µg/mL (≈ 0.701 µM); MIC90 [9]: 0.0625 µg/mL (≈ 0.175 µM); IC50 [4]: > 30 µM; inhibition [10]: Dde; Activity [5]: 1.5 log10CFU
16 | O=C(NC1C2CC3CC(C2)CC1C3)c1cc(-c2ccc(Cl)cc2)c[nH]1 (stereo unspecified) | 0.1 µg/mL (≈ 0.282 µM) | 126 | IC50 (Vero): 12.6 µg/mL (≈ 35.5 µM)

Row | Structure (SMILES) | MIC90 [1] | selectivity ratio (in vitro) | other results
17 | CN(C(=O)c1cc(-c2ccc(Cl)cc2Cl)cn1C)C1C2CC3CC(C2)CC1C3 (stereo unspecified) | > 32 µg/mL | – | –
18 | O=C(NC1C2CC3CC(C2)CC1C3)c1cc(-c2ccc(F)cc2)c[nH]1 (stereo unspecified) | < 0.016 µg/mL | 788 | Stability [2]: Stable; IC50 (Vero): 12.6 µg/mL (≈ 37.2 µM); Stability [3]: 70.4%
19 | COc1ncccc1-c1c[nH]c(C(=O)NC2C3CC4CC(C3)CC2C4)c1 (stereo unspecified) | < 0.016 µg/mL | 737 | Stability [2]: Stable; Stability [3]: 0.63%
20 | O=C(c1cc(-c2ccc(Cl)cc2Cl)c[nH]1)N1CCCC1 | 9.8 µg/mL (≈ 31.7 µM) | – | –
21 | O=C(NC1C2CC3CC(C2)CC1C3)c1cc(-c2cccnc2)c[nH]1 (stereo unspecified) | 0.04 µg/mL (≈ 0.124 µM) | 988 | IC50 (Vero): 39.5 µg/mL (≈ 123 µM)
22 | COc1cc(F)ccc1-c1c[nH]c(C(=O)NC2C3CC4CC(C3)CC2C4)c1 (stereo unspecified) | < 0.016 µg/mL | 1380 | IC50 (Vero): 22 µg/mL (≈ 59.7 µM)
23 | O=C(NC1C2CC3CC(C2)CC1C3)c1cc(-c2ccncc2)c[nH]1 (stereo unspecified) | 0.45 µg/mL (≈ 1.4 µM) | 99 | –
24 | O=C(NC12CC3CC(CC(C3)C1)C2)c1cc(-c2ccc(Cl)cc2Cl)c[nH]1 | 0.058 µg/mL (≈ 0.149 µM) | – | –
25 | O=C(NC1CCCCC1)c1cc(-c2ccc(Cl)cc2Cl)c[nH]1 | 6.5 µg/mL (≈ 19.3 µM) | – | –
26 | CC1(C)CCC(NC(=O)c2cc3c(Cl)cc(Cl)cc3[nH]2)CC1 | 0.015 µg/mL (≈ 0.0442 µM) | 700 | IC50 (Vero): 10.5 µg/mL (≈ 30.9 µM)
27 | O=C(NC1C2CC3CC(C2)CC1C3)c1cc(-c2ccc(C(F)(F)F)cc2C(F)(F)F)c[nH]1 (stereo unspecified) | 1.08 µg/mL (≈ 2.37 µM) | – | –
28 | O=C(NC1C2CC3CC(C2)CC1C3)c1cc(-c2cccnc2Cl)c[nH]1 (stereo unspecified) | 0.28 µg/mL (≈ 0.787 µM) | – | IC50 (Vero): > 64 µg/mL
29 | O=C(NC1CCC(F)(F)CC1)c1cc(-c2ccc(Cl)cc2Cl)c[nH]1 | 6.1 µg/mL (≈ 16.3 µM) | – | –
30 | Cc1nc(F)ccc1-c1c[nH]c(C(=O)NC2C3CC4CC(C3)CC2C4)c1 (stereo unspecified) | 0.062 µg/mL (≈ 0.175 µM) | 447 | Stability [2]: Stable; IC50 (Vero): 27.7 µg/mL (≈ 78.4 µM); Stability [3]: 32.3%
31 | O=C(Nc1ccccc1)c1cc(-c2ccc(Cl)cc2Cl)c[nH]1 | > 32 µg/mL | – | –

Reference: ChEMBL document CHEMBL5126604, “Design, Synthesis, and Biological Evaluation of Pyrrole-2-carboxamide Derivatives as Mycobacterial Membrane Protein Large 3 Inhibitors for Treating Drug-Resistant Tuberculosis” (J Med Chem, 2022)
